Where a name gives a salt, the structure may show the parent alone.
Legend:
[1] = target: T1, EZH2 within the PRC2 complex (Homo sapiens (Human), UniProt Q15910); experiment: EZH2 methyltransferase SPA, biotinylated histone H3K27 peptide substrate (Assay Protocol 2); type: biochemical; settings: 3H-SAM, ≦10 nM approaches limit of detection
Method in brief: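 Five-member human PRC2 complex (FLAG-EZH2, EED, SUZ12, RbAp48, AEBP2) co-expressed in Sf9 cells, 1 nM final, with 10 uM biotinylated H3K27 peptide, 0.15 uM 3H-SAM plus 2.85 uM cold SAM, pH 8, 60 min at rt. Quenched with cold SAM; SPA signal; IC50 from 11-point curves vs DMSO.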

[2] = target: T1, EZH2 within the PRC2 complex; experiment: EZH2 methyltransferase SPA, mononucleosome substrate (Assay Protocol 1); type: biochemical; settings: HeLa mononucleosome substrate, 3H-SAM, ≦10 nM approaches limit of detection
Procedure: Compounds contained herein were evaluated for their ability to inhibit the methyltransferase activity of EZH2 within the PRC2 complex. Human PRC2 complex was prepared by co-expressing each of the 5 member proteins (FLAG-EZH2, EED, SUZ12, RbAp48, AEBP2) in Sf9 cells followed by co-purification. Enzyme activity was measured in a scintillation proximity assay (SPA) where a tritiated methyl group is transferred from 3H-SAM to a lysine residue on Histone H3 of a mononucleosome, purified from HeLa cells. Mononucleosomes were captured on SPA beads and the resulting signal is read on a ViewLux plate reader.
Part A. Compound Preparation
• 1. Prepare 10 mM stock of compounds from solid in 100% DMSO. • 2. Set up an 11-point serial dilution (1:3 dilution, top concentration 10 mM) in 100% DMSO for each test compound in a 384 well plate leaving columns 6 and 18 for DMSO controls. • 3. Dispense 100 nL of compound from the dilution plate into reaction plates (Grenier Bio-One, 384-well, Cat#784075). Part B. Reagent Preparation Prepare the following solutions: • 1. 50 mM Tris-HCl, pH 8: Per 1 L of base buffer, combine 1 M Tris-HCl, pH 8 (50 mL) and distilled water (950 mL). • 2. 1× Assay Buffer: Per 10 mL of 1× Assay Buffer, combine 50 mM Tris-HCl, pH 8 (9958 uL), 1 M MgCl2 (20 uL), 2 M DTT (20 uL), and 10% Tween-20 (2 uL) to provide a final concentration of 50 mM Tris-HCl, pH 8, 2 mM MgCl2, 4 mM DTT, 0.002% Tween-20. • 3. 2× Enzyme Solution: Per 10 mL of 2× Enzyme Solution, combine 1× Assay Buffer and PRC2 complex to provide a final enzyme concentration of 10 nM. • 4. SPA Bead Suspension: Per 1 mL of SPA Bead Suspension, combine PS-PEI coated LEADSeeker beads (40 mg) and H2O (1 mL) to provide a final concentration of 40 mg/mL. • 5. 2× Substrate Solution: Per 10 mL of 2× Substrate Solution, combine 1× Assay Buffer (9728.55 uL), 800 ug/mL mononucleosomes (125 uL), 1 mM cold SAM (4 uL), and 7.02 uM 3H-SAM (142.45 uL; 0.55 mCi/mL) to provide a final concentration of 5 ug/mL nucleosomes, 0.2 uM cold SAM, and 0.05 uM 3H-SAM. • 6. 2.67× Quench/Bead Mixture: Per 10 mL of 2.67× Quench/Bead Mixture, combine ddH2O (9358 uL), 10 mM cold SAM (267 uL), 40 mg/mL Bead Suspension (375 uL) to provide a final concentration of 100 uM cold SAM and 0.5 mg/mL SPA beads. Part C. Assay Reaction in 384-well Grenier Bio-One Plates Compound Addition • 1. Dispense 100 nL/well of 100× Compound to test wells (as noted above). • 2. Dispense 100 nL/well of 100% DMSO to columns 6 & 18 for high and low controls, respectively. Assay • 1. Dispense 5 uL/well of 1× Assay Buffer to column 18 (low control reactions). • 2. Dispense 5 uL/well of 2× Enzyme Solution to columns 1-17, 19-24. • 3. Spin assay plates for ˜1 min at 500 rpm. • 4. Stack the assay plates, covering the top plate. • 5. Incubate the compound/DMSO with the enzyme for 30 min at room temperature. • 6. Dispense 5 uL/well of 2× Substrate Solution to columns 1-24. • 7. Spin assay plates for ˜1 min at 500 rpm. • 8. Stack the assay plates, covering the top plate. • 9. Incubate the assay plates at room temperature for 1 hour. Quench/Bead Addition • 1. Dispense 5 uL/well of the 3× Quench/Bead Mixture to columns 1-24. • 2. Seal the top of each assay plate with adhesive TopSeal. • 3. Spin assay plates for ˜1 min at 500 rpm. • 4. Equilibrate the plates for >20 min. Read plates • 1. Read the assay plates on the Viewlux Plate Reader utilizing the 613 nm emission filter with a 300 s read time.
Reagent addition can be done manually or with automated liquid handler. • The final DMSO concentration in this assay is 1%. • The positive control is in column 6; negative control is in column 18. • Final starting concentration of compounds is 100 µM. Results
Percent inhibition was calculated relative to the DMSO control for each compound concentration and the resulting values were fit using standard IC50 fitting parameters within the ABASE data fitting software package.

T1 sequence (Q15910 whole entry): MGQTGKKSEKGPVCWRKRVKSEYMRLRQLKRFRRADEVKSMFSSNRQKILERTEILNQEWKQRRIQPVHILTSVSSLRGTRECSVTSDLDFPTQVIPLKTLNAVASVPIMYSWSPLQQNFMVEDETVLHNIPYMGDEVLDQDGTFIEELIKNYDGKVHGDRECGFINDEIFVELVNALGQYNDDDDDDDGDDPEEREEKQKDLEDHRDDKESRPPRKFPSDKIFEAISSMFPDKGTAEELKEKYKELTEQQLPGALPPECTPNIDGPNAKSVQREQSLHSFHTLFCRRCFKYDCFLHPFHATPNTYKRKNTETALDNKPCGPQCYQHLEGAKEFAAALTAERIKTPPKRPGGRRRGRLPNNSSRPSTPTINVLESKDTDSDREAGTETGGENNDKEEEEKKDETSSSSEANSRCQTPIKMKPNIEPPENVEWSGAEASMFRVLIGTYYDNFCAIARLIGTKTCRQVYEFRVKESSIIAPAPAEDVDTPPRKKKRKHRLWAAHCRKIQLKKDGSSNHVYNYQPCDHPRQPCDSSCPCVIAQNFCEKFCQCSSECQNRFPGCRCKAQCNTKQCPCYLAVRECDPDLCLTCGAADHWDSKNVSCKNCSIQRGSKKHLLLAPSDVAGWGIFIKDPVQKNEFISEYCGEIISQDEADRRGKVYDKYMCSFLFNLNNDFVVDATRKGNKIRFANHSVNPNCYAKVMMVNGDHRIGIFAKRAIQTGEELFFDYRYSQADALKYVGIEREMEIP
T1 sequence (O75530 whole entry partner): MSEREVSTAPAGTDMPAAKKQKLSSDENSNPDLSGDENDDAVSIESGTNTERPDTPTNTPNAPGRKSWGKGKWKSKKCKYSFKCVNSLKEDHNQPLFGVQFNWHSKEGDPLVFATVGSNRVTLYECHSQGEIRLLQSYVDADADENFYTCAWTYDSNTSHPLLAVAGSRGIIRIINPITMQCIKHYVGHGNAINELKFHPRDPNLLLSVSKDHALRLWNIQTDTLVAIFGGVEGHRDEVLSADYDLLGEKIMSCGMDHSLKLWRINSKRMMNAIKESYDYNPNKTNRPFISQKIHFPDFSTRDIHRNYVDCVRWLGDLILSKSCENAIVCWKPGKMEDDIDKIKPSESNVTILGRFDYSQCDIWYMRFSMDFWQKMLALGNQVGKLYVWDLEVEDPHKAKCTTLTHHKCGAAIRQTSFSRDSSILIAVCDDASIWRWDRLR
T1 sequence (Q15022 whole entry partner): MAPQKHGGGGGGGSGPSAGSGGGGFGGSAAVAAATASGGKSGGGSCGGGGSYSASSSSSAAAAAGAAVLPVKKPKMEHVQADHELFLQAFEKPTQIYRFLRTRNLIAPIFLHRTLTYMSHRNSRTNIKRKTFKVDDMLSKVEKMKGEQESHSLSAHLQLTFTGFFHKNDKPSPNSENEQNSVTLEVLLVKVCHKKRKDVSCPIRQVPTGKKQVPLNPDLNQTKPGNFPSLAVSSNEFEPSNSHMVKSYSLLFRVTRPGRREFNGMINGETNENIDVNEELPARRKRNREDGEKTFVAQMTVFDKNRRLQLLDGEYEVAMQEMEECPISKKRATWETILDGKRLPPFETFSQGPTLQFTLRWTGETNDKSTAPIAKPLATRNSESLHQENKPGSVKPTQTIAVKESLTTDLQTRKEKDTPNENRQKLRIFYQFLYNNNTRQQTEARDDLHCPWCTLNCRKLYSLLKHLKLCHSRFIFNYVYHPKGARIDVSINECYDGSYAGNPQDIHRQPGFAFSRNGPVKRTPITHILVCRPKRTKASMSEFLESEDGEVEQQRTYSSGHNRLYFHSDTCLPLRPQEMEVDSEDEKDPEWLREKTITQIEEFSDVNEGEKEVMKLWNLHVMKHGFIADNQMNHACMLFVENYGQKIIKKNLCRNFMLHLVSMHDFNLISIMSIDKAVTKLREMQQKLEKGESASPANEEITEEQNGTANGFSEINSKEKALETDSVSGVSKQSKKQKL
T1 sequence (Q09028 whole entry partner): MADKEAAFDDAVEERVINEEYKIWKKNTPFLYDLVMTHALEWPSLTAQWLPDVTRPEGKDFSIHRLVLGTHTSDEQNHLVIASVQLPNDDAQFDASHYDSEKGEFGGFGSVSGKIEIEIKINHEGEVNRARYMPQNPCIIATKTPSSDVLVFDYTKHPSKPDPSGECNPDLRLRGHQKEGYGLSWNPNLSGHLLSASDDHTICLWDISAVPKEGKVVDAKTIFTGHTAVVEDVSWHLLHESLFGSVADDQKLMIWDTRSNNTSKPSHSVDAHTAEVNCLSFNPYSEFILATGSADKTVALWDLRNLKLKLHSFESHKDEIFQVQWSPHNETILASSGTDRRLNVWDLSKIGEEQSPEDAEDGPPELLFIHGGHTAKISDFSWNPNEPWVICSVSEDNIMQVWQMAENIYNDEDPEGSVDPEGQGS
T1 sequence (Q6ZN18 whole entry partner): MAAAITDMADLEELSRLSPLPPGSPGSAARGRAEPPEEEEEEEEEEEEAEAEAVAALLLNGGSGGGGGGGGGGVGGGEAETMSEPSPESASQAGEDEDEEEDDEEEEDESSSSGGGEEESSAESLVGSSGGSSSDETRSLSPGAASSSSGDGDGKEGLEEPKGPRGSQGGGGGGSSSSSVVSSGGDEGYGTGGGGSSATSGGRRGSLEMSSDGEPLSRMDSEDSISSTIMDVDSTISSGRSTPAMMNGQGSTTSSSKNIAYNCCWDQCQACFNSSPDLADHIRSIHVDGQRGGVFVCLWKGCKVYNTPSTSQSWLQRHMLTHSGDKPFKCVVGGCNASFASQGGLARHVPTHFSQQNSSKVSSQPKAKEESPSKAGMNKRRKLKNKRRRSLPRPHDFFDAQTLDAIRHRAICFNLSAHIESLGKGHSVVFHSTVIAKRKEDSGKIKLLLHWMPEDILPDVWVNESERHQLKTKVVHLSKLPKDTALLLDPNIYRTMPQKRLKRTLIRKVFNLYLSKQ

Row | Structure (SMILES) | IC50 [1] [nM] | IC50 [2] [nM]
1 | Cc1cc(C)c(CNC(=O)c2scc(OC(C)C)c2C)c(=O)[nH]1 [Example 1, N-((4,6-dimethyl-2-oxo-1,2-dihydropyridin-3-yl)methyl)-4-isopropoxy-3-methylthiophene-2-carboxamide] | 25100 | 3160
2 | CCN(c1csc(C(=O)NCc2c(C)cc(C)[nH]c2=O)c1C)C1CCOCC1 [Example 2, N-((4,6-Dimethyl-2-oxo-1,2-dihydropyridin-3-yl)methyl)-4-(ethyl(tetrahydro-2H-pyran-4-yl)amino)-3-methylthiophene-2-carboxamide] | 200 | 63
3 | CCN(c1c(Cl)sc(C(=O)NCc2c(C)cc(C)[nH]c2=O)c1C)C1CCOCC1 [Example 3, 5-Chloro-N-((4,6-dimethyl-2-oxo-1,2-dihydropyridin-3-yl)methyl)-4-(ethyl(tetrahydro-2H-pyran-4-yl)amino)-3-methylthiophene-2-carboxamide] | 200 | 100
4 | CCN(c1csc(C(=O)NCc2c(C)cc(C)[nH]c2=O)c1C)[C@H]1CC[C@H](N(C)C)CC1 [Example 4, N-((4,6-dimethyl-2-oxo-1,2-dihydropyridin-3-yl)methyl)-4-(((trans)-4-(dimethylamino)cyclohexyl)(ethyl)amino)-3-methylthiophene-2-carboxamide] | 25 | 16
5 | CCN(c1csc(C(=O)NCc2c(C)cc(C)[nH]c2=O)c1C)[C@H]1CC[C@@H](N(C)C)CC1 [Example 5, N-((4,6-dimethyl-2-oxo-1,2-dihydropyridin-3-yl)methyl)-4-(((cis)-4-(dimethylamino)cyclohexyl)(ethyl)amino)-3-methylthiophene-2-carboxamide] | 50 | 32
6 | CCN(c1scc(C(=O)NCc2c(C)cc(C)[nH]c2=O)c1C)C1CCOCC1 [Example 6, N-((4,6-dimethyl-2-oxo-1,2-dihydropyridin-3-yl)methyl)-5-(ethyl(tetrahydro-2H-pyran-4-yl)amino)-4-methylthiophene-3-carboxamide] | 16 | 16
7 | Cc1cc(C)c(CNC(=O)c2cnn(-c3ccccc3)c2C)c(=O)[nH]1 [Example 9, N-((4,6-dimethyl-2-oxo-1,2-dihydropyridin-3-yl)methyl)-5-methyl-1-phenyl-1H-pyrazole-4-carboxamide] | 63100 | 20000
8 | CCN(c1scc(C(=O)NCc2c(C)cc(C)[nH]c2=O)c1C)C1CCNCC1 [Example 12, N-((4,6-dimethyl-2-oxo-1,2-dihydropyridin-3-yl)methyl)-5-(ethyl(piperidin-4-yl)amino)-4-methylthiophene-3-carboxamide hydrochloride] | 20 | ≤ 10

Second part, the molecule after the results:

Row | IC50 [1] [nM] | IC50 [2] [nM] | Structure (SMILES)
9 | 20 | ≤ 10 | CCN(c1scc(C(=O)NCc2c(C)cc(C)[nH]c2=O)c1C)[C@H]1CC[C@@H](N(C)C)CC1 [Example 7, N-((4,6-dimethyl-2-oxo-1,2-dihydropyridin-3-yl)methyl)-5-(((cis)-4-(dimethylamino)cyclohexyl)(ethyl)amino)-4-methylthiophene-3-carboxamide]
10 | 13 | ≤ 10 | CCN(c1scc(C(=O)NCc2c(C)cc(C)[nH]c2=O)c1C)[C@H]1CC[C@H](N(C)C)CC1 [Example 8, N-((4,6-dimethyl-2-oxo-1,2-dihydropyridin-3-yl)methyl)-5-(((trans)-4-(dimethylamino)cyclohexyl)(ethyl)amino)-4-methylthiophene-3-carboxamide]
11 | ≥ 100000 | 15800 | Cc1cc(C)c(CNC(=O)c2cnn(CC3CCOCC3)c2C)c(=O)[nH]1 [Example 10, N-((4,6-dimethyl-2-oxo-1,2-dihydropyridin-3-yl)methyl)-5-methyl-1-((tetrahydro-2H-pyran-4-yl)methyl)-1H-pyrazole-4-carboxamide]
12 | 20 | 16 | CCN(c1scc(C(=O)NCc2c(C)cc(C)[nH]c2=O)c1C)C1CCN(C(=O)OC(C)(C)C)CC1 [Example 11, tert-Butyl 4-((4-(((4,6-dimethyl-2-oxo-1,2-dihydropyridin-3-yl)methyl)carbamoyl)-3-methylthiophen-2-yl)(ethyl)amino)piperidine-1-carboxylate]
13 | 2000 | 316 | Cc1cc(C)c(CNC(=O)c2csc(C(C)N3CCC(N(C)C)CC3)c2)c(=O)[nH]1 (stereo not drawn) [Example 13, N-((4,6-dimethyl-2-oxo-1,2-dihydropyridin-3-yl)methyl)-5-(1-(4-(dimethylamino)piperidin-1-yl)ethyl)thiophene-3-carboxamide]
14 | 2000 | 630 | CCN(c1c(C)c(C(=O)NCc2c(C)cc(C)[nH]c2=O)nn1C)C1CCOCC1 [Example 14, N-[(4,6-dimethyl-2-oxo-1,2-dihydro-3-pyridinyl)methyl]-5-[ethyl(tetrahydro-2H-pyran-4-yl)amino]-1,4-dimethyl-1H-pyrazole-3-carboxamide]
15 | 630 | 79 | CCN(c1scc(C(=O)NCc2c(C(F)(F)F)cc(C)[nH]c2=O)c1C)C1CCOCC1 [Example 15, 5-(Ethyl(tetrahydro-2H-pyran-4-yl)amino)-4-methyl-N-((6-methyl-2-oxo-4-(trifluoromethyl)-1,2-dihydropyridin-3-yl)methyl)thiophene-3-carboxamide]
16 | 25 | ≤ 10 | CCCc1cc(C)[nH]c(=O)c1CNC(=O)c1csc(N(CC)[C@H]2CC[C@H](N(C)C)CC2)c1C [Example 16, 5-(((trans)-4-(Dimethylamino)cyclohexyl)(ethyl)amino)-4-methyl-N-((6-methyl-2-oxo-4-propyl-1,2-dihydropyridin-3-yl)methyl)thiophene-3-carboxamide]
17 | 630 | 316 | CCN(c1scc(C(=O)NCc2c(C)cc(C(F)(F)F)[nH]c2=O)c1C)[C@H]1CC[C@H](N(C)C)CC1 [Example 17, 5-(((trans)-4-(Dimethylamino)cyclohexyl)(ethyl)amino)-4-methyl-N-((4-methyl-2-oxo-6-(trifluoromethyl)-1,2-dihydropyridin-3-yl)methyl)thiophene-3-carboxamide]
18 | 13 | ≤ 10 | CCN(c1scc(C(=O)NCc2c(OC)cc(C)[nH]c2=O)c1C)[C@H]1CC[C@H](N(C)C)CC1 [Example 18, 5-(((trans)-4-(Dimethylamino)cyclohexyl)(ethyl)amino)-N-((4-methoxy-6-methyl-2-oxo-1,2-dihydropyridin-3-yl)methyl)-4-methylthiophene-3-carboxamide]
